# Assay results published in US11202792B2, “CD99 inhibitors and their uses” (GEORGETOWN UNIVERSITY, priority 2016, dated 2021).
# Columns and labels:
# [1] = test system: A4573 ES cells; test: Cell viability IC50 (WST-1), A4573; format: cell-based, human; settings: Homo sapiens, WST-1, 48 h (FIG. 10B)
# [2] = test system: MG63.3 OS cells transfected with DCK siRNA; test: Response to clofarabine after DCK siRNA, OS cells; format: cell-based, human; settings: MG63.3, DCK siRNA
# Description: (§4) The expression of DCK and CD99 was suppressed transiently by using a validated small interfering RNA (siRNA) duplexes targeting coding region (Invitrogen (Carlsbad, Calif.); #s186 and #s8768, respectively). Silencer™ Select Negative Control No. 2 siRNA (Invitrogen) was used as the control. Cells were transfected with DCK or CD99 or control siRNA oligonucleotides using X-tremeGene siRNA transfection reagent (Roche Diagnostics (Basel, Switzerland)) according to the manufacturer's protocol. The cells were analyzed for DCK and CD99 knockdown after 45 or 72 h by immunoblotting.
# [3] = test system: A4573 xenografts; test: Orthotopic A4573 xenograft, i.p. administration; format: in vivo, SCID/beige mice
# Experimental: (§1) All tumor tissues were fixed in 10% neutral buffered formalin for 24 h, dehydrated through a graded series of alcohols and cleared in xylenes prior to embedding in paraffin. Embedded tissues were cut into 5 μm thick sections and stained with hematoxylin and eosin (H&E). Immunohistochemical staining was performed for CD99 and caspase 3 (cleaved). Five micron sections from formalin fixed paraffin embedded tissues were de-paraffinized with xylenes and rehydrated through a graded alcohol series. Heat induced epitope retrieval was performed by immersing the tissue sections at 98° C. for 60 min in 10 mmol/L citrate buffer (pH 6.0). Immunohistochemical staining was performed using a horseradish peroxidase labeled polymer from Agilent (Santa Clara, Calif.) (#K4001, #K4003) according to manufacturer's instructions. Briefly, slides were treated with 3% hydrogen peroxide and 10% normal goat serum for 10 min each, and exposed to primary antibodies for CD99 (Abcam, #ab8855) at a 1:100 dilution and for caspase 3 (cleaved) (Biocare (Pacheco, Calif.), #CP229A) at a 1:90 dilution in Da Vinci Green for one hour and stained on an DAKO Autostainer. Slides were exposed to the appropriate HRP labeled polymer for 30 min and DAB chromogen (Dako (Santa Clara, Calif.) for 5 min. Slides were counterstained with Hematoxylin (Fisher, Harris Modified Hematoxylin), blued in 1% ammonium hydroxide, dehydrated, and mounted with Acrymount. Consecutive sections with the primary antibody omitted were used as negative controls. The sections were evaluated in a blinded fashion by a board certified pathologist.
# The antitumor activity of drugs through intraperitoneal (i.p.) administration given once daily was determined. […] The in vivo potencies of drug treatments were evaluated by event-free survival curves, where tumors that reached 1.0 cm^3 in size considered an event.
# [4] = test system: ES cell lines RDES and TC-71; test: Secondary functional screen, growth inhibition in ES cell lines; format: cell-based; settings: Homo sapiens; 10 μmol/L, 48 h, WST-1
# [5] = test system: MSK1/2 phosphorylation in MG63.3 and U-2 OS cells; test: MSK1/2 phosphorylation by immunoblot, OS cells; format: cell-based, human; settings: 1.0 μmol/L, 24 h
# Experimental: (§2) In a parallel set of experiment, cells were also treated with 15 μg/mL of either mouse control IgM or CD99 blocking antibody for the same duration. Total cell lysates were analyzed by immunoblotting for MSK1/2 phosphorylation. […] In a parallel set of experiment, cells were transfected with either siRNA control or siRNA targeting the coding region of CD99 protein. Total cell lysates were analyzed after 48 h by immunoblotting for MSK1/2 phosphorylation after cell transfection. […] In FIG. 23D, SCID/beige mice were implanted with TC-71 xenografts in their tibia. […] Tumor lysates were analyzed by immunoblotting for MSK1/2 phosphorylation.
# (§3) Quantitative analysis of protein bands was performed using ImageJ 1.48v software. Immunoblotting was performed as described above.
# [6] = test system: TC-32 ES cells transfected with DCK siRNA; test: Response to clofarabine after DCK siRNA, ES cells; format: cell-based, human; settings: TC-32, DCK siRNA
# Description: as §4
# [7] = test system: MSK1/2 phosphorylation in STA-ET-7.2 and TC-32 cells; test: MSK1/2 phosphorylation by immunoblot, ES cells; format: cell-based, human; settings: 0.6 μmol/L (STA-ET-7.2) or 0.5 μmol/L (TC-32), 24 h, vs vehicle
# Experimental: as §2, §3
# [8] = molecular target: T1, CD99 protein (Homo sapiens, UniProt P14209); test: Cellular thermal shift assay (CETSA) in TC-71 cell lysates; format: binding; settings: 3.0 μmol/L, 30 min, high temperatures vs control lysates
# T1 construct: The thermostability of endogenous CD99 protein increased in cell lysates from TC-71 cells; endogenous in cells; host or cells: TC-71 total cell lysate
# Experimental: The CETSA method was used according to Martinez Molina et al. (“Monitoring drug target engagement in cells and tissues using the cellular thermal shift assay,” Science 341: 84-87 (2013)) and Jafari et al. (“The cellular thermal shift assay for evaluating drug target interactions in cells,” Nat Protoc 9:2100-22 (2014)). […] The cell lysates in 60 μL volumes were individually heated in thin wall PCR tubes to the indicated temperatures for 3 min, by using Veriti 96-well Thermal Cycler (Applied Biosystems (Foster City, Calif.)). Samples were then centrifuged at 16,000×g for 30 min at 4° C. to remove insoluble proteins, and 40 ul of the resulting supernatants were transferred into new eppendorf tubes for subsequent SDS-PAGE and immunoblotting analysis.
# [9] = test system: TC-CD99-shRNA #1 cells; test: Soft agar colony formation assay, CD99 knockdown cells; format: cell-based, human
# [10] = test system: U-2 OS cells; test: Secondary functional screen, negative control cell line; format: cell-based; settings: Homo sapiens, U2OS; 10 μmol/L, 48 h, WST-1; read-out: growth inhibition of OS cell lines (U-2 OS)
# [11] = test system: TC-71 xenografts; test: Orthotopic TC-71 xenograft, oral administration; format: in vivo, SCID/beige mice
# Experimental: as §1
# In this study, reduction in number of mitotic figures and increase in caspase-3 staining was less prominent. […] Therefore, when the animals were euthanized for tumor regrowth they were not receiving any clofarabine. Their last dose of clofarabine was more than two week before the tissue harvest.
# T1 sequence (P14209 23-185): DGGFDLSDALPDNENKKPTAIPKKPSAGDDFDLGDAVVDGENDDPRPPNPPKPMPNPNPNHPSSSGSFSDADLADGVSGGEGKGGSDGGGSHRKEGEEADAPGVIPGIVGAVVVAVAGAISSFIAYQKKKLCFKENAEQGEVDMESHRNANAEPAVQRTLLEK
structure (smiles),measurement,setting,value
Nc1nc(Cl)nc2c1ncn2[C@@H]1O[C@H](CO)[C@@H](O)[C@@H]1F [clofarabine],IC50,[1],310 nM
same,response after inhibiting DCK protein expression,[2],complete resistance
same,mitotic figures per field,"[3]; H&E, 200-fold magnification",≤ 3
same,apoptotic cells,"[3]; H&E, confirmed by caspase-3 immunohistochemistry",significant increase
same,event-free survival,"[3]; i.p. once daily, clofarabine 30 mg/kg, vs vehicle",significantly improved
same,tumor growth,"[3]; i.p., clofarabine 30 mg/kg",significant inhibition of tumor growth
same,inhibition at 10 µM,[4],≥ 70%
same,phosphorylation levels of MSK1/2,[5],Neither MG63.3 nor U2-OS cells showed a response
same,response after inhibiting DCK protein expression,[6],shift to the right of the IC50 curve
same,phosphorylation levels of MSK1/2,[7],significantly elevated
same,thermostability of endogenous CD99 protein,[8],increased
same,colony formation in CD99 knockdown cells,[9],did not result in further decrease
same,inhibition at 10 µM,[10],≤ 10%
same,mitotic figures,[11]; TC-71 xenograft harvested after 2 days of 30 mg/kg oral,complete loss
same,apoptotic cells,"[11]; TC-71 xenograft harvested after 2 days of 30 mg/kg oral, H&E, caspase-3",significant increase
same,phosphorylation levels of MSK1/2 in tumors,"[11]; TC-71 xenograft, oral 30 mg/kg for two days, three out of four mice",significant increase
same,tumor growth,"[11]; TC-71 xenograft, 30 mg/kg orally once daily 14 days, compared to i.p. administration",more significant inhibition of tumor growth
same,median event-free survival,"[11]; TC-71 xenograft, 30 mg/kg orally once daily for 14 days, vehicle 7 days, p<0.0001",33 days
